From patent publication US10092592B2, “Application of cyclic dinucleotide (cGAMP) in anti-tumor field” (FUDAN UNIVERSITY, priority 2014, dated 2018)

What was measured:
Assay type in all cases: in vivo
[1] = tested on: human pancreatic carcinoma cell SW1990; test: Subcutaneously transplanted tumor of human pancreatic carcinoma cell SW1990 in nude mice; conditions: SW1990 in BALB/c nude mice; for Average Tumor Weight: mean ± SD, n = 8
Experimental: (§1) Anti-tumor effect of cGAMP (cyclized GMP-AMP) was detected by employing a tumor-bearing mouse model to test inhibition effect of cGAMP on subcutaneously transplanted tumor.
(§2) Animals: Nude mouse BALB/c, male, with a body weight of 16-18 g, 4-6 weeks old, SPF grade, purchased from SLAC LABORATORY ANIMAL [certification number: SCXK (Shanghai) 2007-0005].
(§3) Dose: cGAMP was injected into abdominal cavities of mice, and two dose groups were set as followed: 10 mg/kg and 40 mg/kg.
(§4) Experimental Controls: • Negative control: brine solution • Positive control: 5-fluorouracil (5-FU), with a dose of 20 mg/kg
(§5) Administration Method: • Administration route: administration by intraperitoneal injection • Administration frequency: once a day for 14 days • Number of each group of animals: 8
(§6) Tumor cell lines: human gastric carcinoma cell line MNK-45, human lung adenocarcinoma cell line A549, human colorectal carcinoma cell line Lovo, human hepatocellular carcinoma cell line SMMC-7721, human prostatic carcinoma cell line PC-3 and human pancreatic carcinoma cell SW1990, purchased from the Cell Bank of the Chinese Academy of Sciences, are included in the above mentioned tumor cell lines.
(§7) 1. establishing a tumor-bearing mouse model and allowing intervention, including: cultivating and passaging cells, collecting cells in logarithmic phase, and making into a cell suspension with a concentration of 1.0×10^7/ml, injecting 0.2 ml of the cell suspension into the nude mice through their right arm armpits to make them get a tumor, and randomly dividing the nude mice into four groups: a negative control which is a group injected with brine through intraperitoneal injection, a 5-FU group which is a group injected with 5-FU through intraperitoneal injection, a cGMP-AMP low-dose group which is a group injected with 10 mg/kg of cGMP-AMP through intraperitoneal injection, and a cGMP-AMP high-dose group which is a group injected with 40 mg/kg of cGMP-AMP through intraperitoneal injection, administrating once a day for 14 days, then killing the nude mice and weighing the wts. Of tumor and calculating a tumor inhibition rate, which is calculated by the following equation: tumor inhibition rate[1−average tumor weight of experimental groups/average tumor weight of A group]×100%, wherein the experimental groups are B, C and D groups; separately establishing 6 subcutaneously implanted tumor models: human gastric carcinoma cell line MNK-45, human lung adenocarcinoma cell line A549, human colorectal carcinoma cell line Lovo, human hepatocellular carcinoma cell line SMMC-7721, human prostatic carcinoma cell line PC-3 and human pancreatic carcinoma cell SW1990, and observing the effect of cGAMP; and
(§8) 2. allowing statistical analysis: representing the data by x±s, processing the data with a software SPSS-10.0, analyzing by one-way ANOVA, comparing the significance of tumor weight differences among the groups, wherein the level of significance is a=0.05.

[2] = tested on: human colorectal carcinoma cell line Lovo; test: Subcutaneously transplanted tumor of human colorectal carcinoma cell line Lovo in nude mice; conditions: Lovo in BALB/c nude mice; for Average Tumor Weight: mean ± SD, n = 8
Experimental: as §1, §2, §3, §4, §5, §6, §7, §8

[3] = tested on: human gastric carcinoma cell line MNK-45; test: Subcutaneously transplanted tumor of human gastric carcinoma cell line MNK-45 in nude mice; conditions: MNK-45 in BALB/c nude mice; for Average Tumor Weight: mean ± SD, n = 8
Experimental: as §1, §2, §3, §4, §5, §6, §7, §8

[4] = tested on: human prostatic carcinoma cell line PC-3; test: Subcutaneously transplanted tumor of human prostatic carcinoma cell line PC-3 in nude mice; conditions: PC-3 in BALB/c nude mice; for Average Tumor Weight: mean ± SD, n = 8
Experimental: as §1, §2, §3, §4, §5, §6, §7, §8

[5] = tested on: human hepatocellular carcinoma cell line SMMC-7721; test: Subcutaneously transplanted tumor of human hepatocellular carcinoma cell line SMMC-7721 in nude mice; conditions: SMMC-7721 in BALB/c nude mice; for Average Tumor Weight: mean ± SD, n = 8
Experimental: as §1, §2, §3, §4, §5, §6, §7, §8

[6] = tested on: human lung adenocarcinoma cell line A549; test: Subcutaneously transplanted tumor of human lung adenocarcinoma cell line A549 in nude mice; conditions: A549 in BALB/c nude mice; for Average Tumor Weight: mean ± SD, n = 8
Experimental: as §1, §2, §3, §4, §5, §6, §7, §8

[7] = tested on: ICR mice; test: Acute toxicity, single tail intravenous injection
Experimental: The materials are 20 of ICR mice, which are purchased from SLAC LABORATORY ANIMAL [certification number: SCXK (Shanghai) 2007-0005], are half male and half female, have body weights within 18-22 g, are fed with granular feedstuff and are free to find food and drink.
The method includes: subjecting the ICR mice to single tail intravenous injection of 10 ml/kg cGMAP based on their body weights, namely 2 g/kg, observing toxic reactions and deaths after administration within 14 days.

[8] = 20 mg/kg intraperitoneal once a day for 14 days
[9] = high dose 40 mg/kg intraperitoneal once a day for 14 days
[10] = low dose 10 mg/kg intraperitoneal once a day for 14 days
[11] = single tail intravenous injection 2 g/kg (10 ml/kg)

With `O=c1[nH]cc(F)c(=O)[nH]1` [5-FU, 5-fluorouracil, reference compound] the “Average Tumor Inhibition Rate” value [1, 8] was 76.8%, the “Average Tumor Weight” value [1, 8] was 0.685 ± 0.086 (g) and the “Average Tumor Inhibition Rate” value [2, 8] was 71.7%. For the same compound, the “Average Tumor Weight” value [2, 8] was 0.769 ± 0.101 (g), the “Average Tumor Inhibition Rate” value [3, 8] was 76.9% and the “Average Tumor Weight” value [3, 8] was 0.619 ± 0.214 (g). The “Average Tumor Inhibition Rate” value [4, 8] was 76.3%, the “Average Tumor Weight” value [4, 8] was 0.728 ± 0.102 (g) and the “Average Tumor Inhibition Rate” value [5, 8] was 72.7%. The “Average Tumor Weight” value [5, 8] was 0.853 ± 0.082 (g), the “Average Tumor Inhibition Rate” value [6, 8] was 70.3% and the “Average Tumor Weight” value [6, 8] was 0.843 ± 0.210 (g).
In the case of `Nc1nc2c(ncn2[C@@H]2O[C@@H]3COP(=O)(O)O[C@H]4[C@@H](O)[C@H](n5cnc6c(N)ncnc65)O[C@@H]4COP(=O)(O)O[C@@H]2[C@@H]3O)c(=O)[nH]1` [cGAMP, cyclized GMP-AMP], the “Average Tumor Inhibition Rate” value [1, 9] is reported as 67.4%, the “Average Tumor Weight” value [1, 9] is reported as 0.964 ± 0.109 g and the “Average Tumor Inhibition Rate” value [1, 10] is reported as 44.8%. For the same compound, the “Average Tumor Weight” value [1, 10] was 1.631 ± 0.133 (g), the “Average Tumor Inhibition Rate” value [2, 9] was 55.7% and the “Average Tumor Weight” value [2, 9] was 1.204 ± 0.122 (g). For the same compound, the “Average Tumor Inhibition Rate” value [2, 10] was 36.9%, the “Average Tumor Weight” value [2, 10] was 1.714 ± 0.137 g and the “Average Tumor Inhibition Rate” value [3, 9] was 61.3%. The “Average Tumor Weight” value [3, 9] was 1.037 ± 0.198 (g), the “Average Tumor Inhibition Rate” value [3, 10] was 38.7% and the “Average Tumor Weight” value [3, 10] was 1.641 ± 0.175 (g). For the same compound, the “deaths within 14 days after administration” value [7, 11] was “no death was observed”, the “pathological changes in organs by naked eyes on dissection, 15th day” value [7, 11] was “no obvious pathological changes in organs were observed” and the “toxic reactions after the single tail intravenous injection” value [7, 11] was “normal physiological activity was observed”. The “maximum tolerated dose of intravenous injection MTD” value ([7]; single tail intravenous injection, observed 14 days) was “not less than 2 g/kg”, the “Average Tumor Inhibition Rate” value [4, 9] was 69.6% and the “Average Tumor Weight” value [4, 9] was 0.932 ± 0.148 g. The “Average Tumor Inhibition Rate” value [4, 10] was 52.2%, the “Average Tumor Weight” value [4, 10] was 1.467 ± 0.201 (g) and the “Average Tumor Inhibition Rate” value [5, 9] was 65.2%. For the same compound, the “Average Tumor Weight” value [5, 9] was 1.089 ± 0.130 g, the “Average Tumor Inhibition Rate” value [5, 10] was 38.7% and the “Average Tumor Weight” value [5, 10] was 1.916 ± 0.174 (g). The “Average Tumor Inhibition Rate” value [6, 9] was 59.4%, the “Average Tumor Weight” value [6, 9] was 1.151 ± 0.121 (g) and the “Average Tumor Inhibition Rate” value [6, 10] was 44.9%. The “Average Tumor Weight” value [6, 10] was 1.562 ± 0.102 (g).
